Source: ChEMBL document CHEMBL4507301 (2021)

Assays:
[1] = molecular target: Myotonin-protein kinase (Homo sapiens) (UniProt Q09013); settings: Compound concentration 1000.0 nM
[2] = molecular target: Serine/threonine-protein kinase PAK 3 (Homo sapiens) (UniProt O75914); settings: Compound concentration 1000.0 nM
[3] = molecular target: Tyrosine-protein kinase Lyn (Homo sapiens) (UniProt P07948); settings: Compound concentration 1000.0 nM
[4] = molecular target: Ribosomal protein S6 kinase alpha-4 (Homo sapiens) (UniProt O75676); settings: Compound concentration 1000.0 nM
Sequence of Ribosomal protein S6 kinase alpha-4 (Homo sapiens) (O75676 whole entry, looked up): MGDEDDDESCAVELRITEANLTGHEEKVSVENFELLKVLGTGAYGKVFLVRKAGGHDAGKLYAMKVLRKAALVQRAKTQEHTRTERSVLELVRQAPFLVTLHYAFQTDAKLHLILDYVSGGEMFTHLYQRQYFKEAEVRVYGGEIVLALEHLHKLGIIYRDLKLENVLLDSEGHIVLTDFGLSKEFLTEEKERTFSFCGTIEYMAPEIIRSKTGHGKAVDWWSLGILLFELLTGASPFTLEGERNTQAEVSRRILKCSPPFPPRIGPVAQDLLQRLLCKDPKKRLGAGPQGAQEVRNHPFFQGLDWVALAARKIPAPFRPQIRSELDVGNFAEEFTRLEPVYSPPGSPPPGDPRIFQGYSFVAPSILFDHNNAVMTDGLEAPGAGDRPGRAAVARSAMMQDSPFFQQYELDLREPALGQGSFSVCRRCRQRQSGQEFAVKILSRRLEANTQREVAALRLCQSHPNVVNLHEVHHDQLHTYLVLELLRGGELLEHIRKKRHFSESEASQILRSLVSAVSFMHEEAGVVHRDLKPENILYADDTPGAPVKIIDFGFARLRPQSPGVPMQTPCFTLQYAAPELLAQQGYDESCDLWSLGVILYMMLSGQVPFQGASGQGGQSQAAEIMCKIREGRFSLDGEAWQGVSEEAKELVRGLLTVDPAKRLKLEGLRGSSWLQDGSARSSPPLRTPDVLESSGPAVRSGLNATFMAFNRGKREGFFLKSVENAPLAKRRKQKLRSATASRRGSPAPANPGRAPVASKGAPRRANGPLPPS

[5] = test system: Mast/stem cell growth factor receptor Kit (Homo sapiens), P10721 [L576P]; settings: Compound concentration 1000.0 nM
[6] = molecular target: Serine/threonine-protein kinase B-raf (Homo sapiens) (UniProt P15056); settings: Compound concentration 1000.0 nM
Sequence of Serine/threonine-protein kinase B-raf (Homo sapiens) (P15056 whole entry): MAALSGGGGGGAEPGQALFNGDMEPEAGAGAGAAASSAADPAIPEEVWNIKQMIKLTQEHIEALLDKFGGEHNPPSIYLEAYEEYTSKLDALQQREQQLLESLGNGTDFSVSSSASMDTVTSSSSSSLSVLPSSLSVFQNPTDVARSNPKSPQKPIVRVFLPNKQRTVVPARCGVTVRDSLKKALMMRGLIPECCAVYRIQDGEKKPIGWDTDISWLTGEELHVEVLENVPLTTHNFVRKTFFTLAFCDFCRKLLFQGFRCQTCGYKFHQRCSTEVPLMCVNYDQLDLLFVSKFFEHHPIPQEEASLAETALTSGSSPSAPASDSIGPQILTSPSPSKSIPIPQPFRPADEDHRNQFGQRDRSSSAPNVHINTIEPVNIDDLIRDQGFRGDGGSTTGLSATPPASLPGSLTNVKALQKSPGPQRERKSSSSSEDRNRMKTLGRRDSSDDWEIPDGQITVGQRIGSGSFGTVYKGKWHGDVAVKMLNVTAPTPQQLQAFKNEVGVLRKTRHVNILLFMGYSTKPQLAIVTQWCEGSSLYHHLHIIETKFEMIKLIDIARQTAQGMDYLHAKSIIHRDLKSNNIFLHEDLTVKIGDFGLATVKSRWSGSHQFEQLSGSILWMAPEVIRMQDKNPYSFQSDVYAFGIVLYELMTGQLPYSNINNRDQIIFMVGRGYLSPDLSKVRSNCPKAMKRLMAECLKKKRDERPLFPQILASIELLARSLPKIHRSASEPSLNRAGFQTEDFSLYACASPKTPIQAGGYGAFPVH

[7] = molecular target: Beta-adrenergic receptor kinase 1 (Homo sapiens) (UniProt P25098); settings: Compound concentration 1000.0 nM
[8] = test system: Epidermal growth factor receptor (Homo sapiens), P00533 [L858R]; settings: Compound concentration 1000.0 nM
[9] = test system: Epidermal growth factor receptor (Homo sapiens), P00533 [UNDEFINED MUTATION]; settings: Compound concentration 1000.0 nM
[10] = molecular target: Protein-tyrosine kinase 6 (Homo sapiens) (UniProt Q13882); settings: Compound concentration 1000.0 nM
Sequence of Protein-tyrosine kinase 6 (Homo sapiens) (Q13882 whole entry, looked up): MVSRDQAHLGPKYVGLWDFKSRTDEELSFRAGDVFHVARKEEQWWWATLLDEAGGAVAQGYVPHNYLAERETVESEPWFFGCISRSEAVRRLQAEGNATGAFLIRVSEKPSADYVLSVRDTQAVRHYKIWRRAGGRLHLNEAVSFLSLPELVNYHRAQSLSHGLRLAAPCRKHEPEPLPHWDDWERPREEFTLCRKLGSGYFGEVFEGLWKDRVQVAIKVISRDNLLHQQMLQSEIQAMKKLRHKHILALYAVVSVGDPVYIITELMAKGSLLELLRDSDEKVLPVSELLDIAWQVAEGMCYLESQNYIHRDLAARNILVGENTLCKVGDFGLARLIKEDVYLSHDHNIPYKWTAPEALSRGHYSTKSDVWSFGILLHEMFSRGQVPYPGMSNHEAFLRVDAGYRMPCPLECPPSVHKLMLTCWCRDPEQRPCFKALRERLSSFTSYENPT

[11] = molecular target: Cyclin-dependent kinase-like 3 (Homo sapiens) (UniProt Q8IVW4); settings: Compound concentration 1000.0 nM
[12] = molecular target: Phosphatidylinositol 3-kinase catalytic subunit type 3 (Homo sapiens) (UniProt Q8NEB9); settings: Compound concentration 1000.0 nM
[13] = molecular target: Casein kinase I isoform gamma-1 (Homo sapiens) (UniProt Q9HCP0); settings: Compound concentration 1000.0 nM
[14] = test system: Mast/stem cell growth factor receptor Kit (Homo sapiens), P10721 [D816V]; settings: Compound concentration 1000.0 nM
[15] = molecular target: Tyrosine-protein kinase Lck (Homo sapiens) (UniProt P06239); settings: Compound concentration 1000.0 nM
[16] = molecular target: Myosin light chain kinase (Homo sapiens) (UniProt Q32MK0); settings: Compound concentration 1000.0 nM
[17] = molecular target: 5-hydroxytryptamine receptor 1D (Homo sapiens) (UniProt P28221); settings: Compound concentration 10.0 uM
[18] = molecular target: Phosphatidylinositol 3-kinase C2 domain-containing subunit gamma (Homo sapiens) (UniProt O75747); settings: Compound concentration 1000.0 nM
Sequence of Phosphatidylinositol 3-kinase C2 domain-containing subunit gamma (Homo sapiens) (O75747 whole entry, the tested form may be a part): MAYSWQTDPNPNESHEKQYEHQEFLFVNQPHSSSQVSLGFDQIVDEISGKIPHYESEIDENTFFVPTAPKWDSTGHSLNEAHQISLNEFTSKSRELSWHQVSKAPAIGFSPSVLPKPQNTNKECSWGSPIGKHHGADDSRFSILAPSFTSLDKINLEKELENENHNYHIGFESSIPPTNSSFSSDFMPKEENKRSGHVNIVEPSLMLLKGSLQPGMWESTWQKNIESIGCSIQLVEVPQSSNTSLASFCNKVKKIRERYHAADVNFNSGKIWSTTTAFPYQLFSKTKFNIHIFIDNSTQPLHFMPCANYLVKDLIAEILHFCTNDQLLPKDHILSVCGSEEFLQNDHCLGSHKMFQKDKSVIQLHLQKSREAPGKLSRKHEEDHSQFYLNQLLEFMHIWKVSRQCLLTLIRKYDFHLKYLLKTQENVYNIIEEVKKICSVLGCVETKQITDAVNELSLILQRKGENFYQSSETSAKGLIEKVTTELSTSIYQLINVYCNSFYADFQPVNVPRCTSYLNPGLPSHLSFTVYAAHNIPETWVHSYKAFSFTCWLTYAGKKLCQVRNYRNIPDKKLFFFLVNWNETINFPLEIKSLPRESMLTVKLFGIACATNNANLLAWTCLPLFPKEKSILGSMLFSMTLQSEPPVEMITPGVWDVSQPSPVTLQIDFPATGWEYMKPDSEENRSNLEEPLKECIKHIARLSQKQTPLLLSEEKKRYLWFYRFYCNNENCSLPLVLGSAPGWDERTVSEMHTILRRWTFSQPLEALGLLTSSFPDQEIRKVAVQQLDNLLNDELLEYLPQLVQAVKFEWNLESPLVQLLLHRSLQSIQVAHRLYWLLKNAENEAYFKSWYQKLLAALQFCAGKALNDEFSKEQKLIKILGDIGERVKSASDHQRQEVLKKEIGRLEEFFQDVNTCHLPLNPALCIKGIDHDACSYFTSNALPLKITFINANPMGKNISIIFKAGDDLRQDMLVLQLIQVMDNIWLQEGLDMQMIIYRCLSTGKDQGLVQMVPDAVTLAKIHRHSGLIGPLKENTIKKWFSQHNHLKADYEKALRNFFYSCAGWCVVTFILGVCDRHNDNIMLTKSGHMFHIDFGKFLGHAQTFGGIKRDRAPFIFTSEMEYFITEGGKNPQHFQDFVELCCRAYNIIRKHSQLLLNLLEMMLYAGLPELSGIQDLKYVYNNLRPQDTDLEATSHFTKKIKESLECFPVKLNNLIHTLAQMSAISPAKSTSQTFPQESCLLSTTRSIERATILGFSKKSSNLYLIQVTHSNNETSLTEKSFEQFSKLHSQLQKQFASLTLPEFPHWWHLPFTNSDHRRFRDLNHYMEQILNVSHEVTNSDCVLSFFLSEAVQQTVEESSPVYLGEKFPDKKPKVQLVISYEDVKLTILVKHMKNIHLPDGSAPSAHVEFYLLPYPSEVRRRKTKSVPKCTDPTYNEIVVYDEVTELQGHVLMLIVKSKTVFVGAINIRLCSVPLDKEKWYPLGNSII

[19] = molecular target: Mitogen-activated protein kinase 4 (Homo sapiens) (UniProt P31152); settings: Compound concentration 1000.0 nM
[20] = molecular target: Dual specificity mitogen-activated protein kinase kinase 1 (Homo sapiens) (UniProt Q02750); settings: Compound concentration 1000.0 nM
[21] = molecular target: Ephrin type-A receptor 6 (Homo sapiens) (UniProt Q9UF33); settings: Compound concentration 1000.0 nM
[22] = molecular target: Dual specificity mitogen-activated protein kinase kinase 6 (Homo sapiens) (UniProt P52564); settings: Compound concentration 1000.0 nM
Sequence of Dual specificity mitogen-activated protein kinase kinase 6 (Homo sapiens) (P52564 whole entry): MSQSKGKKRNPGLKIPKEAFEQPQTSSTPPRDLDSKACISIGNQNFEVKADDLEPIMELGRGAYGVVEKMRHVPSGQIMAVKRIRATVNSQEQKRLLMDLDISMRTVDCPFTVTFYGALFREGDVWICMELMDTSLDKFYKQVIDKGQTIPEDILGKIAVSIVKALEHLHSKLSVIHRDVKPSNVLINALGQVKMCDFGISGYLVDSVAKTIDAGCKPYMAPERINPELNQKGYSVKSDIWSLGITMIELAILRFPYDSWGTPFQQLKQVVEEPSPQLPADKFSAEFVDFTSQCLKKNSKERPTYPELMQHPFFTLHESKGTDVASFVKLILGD

[23] = molecular target: Calcium-dependent protein kinase 1 (Plasmodium falciparum) (UniProt P62344); settings: Compound concentration 1000.0 nM
[24] = test system: Serine/threonine-protein kinase B-raf (Homo sapiens), P15056 [V600E]; settings: Compound concentration 1000.0 nM
Sequence of Serine/threonine-protein kinase B-raf (Homo sapiens), P15056 [V600E] (P15056 whole entry V600E): as the sequence (P15056 whole entry) above, with V600E counted along it

[25] = molecular target: T1, Alpha-2C adrenergic receptor (Homo sapiens) (UniProt P18825); settings: Compound concentration 10.0 uM
T1 sequence (whole entry): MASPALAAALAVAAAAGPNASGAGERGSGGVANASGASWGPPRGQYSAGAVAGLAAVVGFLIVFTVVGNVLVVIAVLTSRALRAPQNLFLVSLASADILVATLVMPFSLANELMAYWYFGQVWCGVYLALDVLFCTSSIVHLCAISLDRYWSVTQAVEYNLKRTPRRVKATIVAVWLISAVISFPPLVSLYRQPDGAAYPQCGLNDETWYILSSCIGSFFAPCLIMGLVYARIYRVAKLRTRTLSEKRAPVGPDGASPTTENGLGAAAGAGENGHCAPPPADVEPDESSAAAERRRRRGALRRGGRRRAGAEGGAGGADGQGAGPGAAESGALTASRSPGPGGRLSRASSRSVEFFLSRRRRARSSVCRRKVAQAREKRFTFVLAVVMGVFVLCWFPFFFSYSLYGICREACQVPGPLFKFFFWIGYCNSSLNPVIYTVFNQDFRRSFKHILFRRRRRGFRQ

[26] = molecular target: Peripheral plasma membrane protein CASK (Homo sapiens) (UniProt O14936); settings: Compound concentration 1000.0 nM
[27] = test system: Receptor-type tyrosine-protein kinase FLT3 (Homo sapiens), P36888 [D835V]; settings: Compound concentration 1000.0 nM
[28] = molecular target: Non-receptor tyrosine-protein kinase TYK2 (Homo sapiens) (UniProt P29597); settings: Compound concentration 1000.0 nM
[29] = molecular target: Mitogen-activated protein kinase kinase kinase 10 (Homo sapiens) (UniProt Q02779); settings: Compound concentration 1000.0 nM
[30] = molecular target: 5'-AMP-activated protein kinase catalytic subunit alpha-2 (Homo sapiens) (UniProt P54646); settings: Compound concentration 1000.0 nM
[31] = molecular target: Tyrosine-protein kinase receptor Tie-1 (Homo sapiens) (UniProt P35590); settings: Compound concentration 1000.0 nM
[32] = molecular target: MAP kinase-interacting serine/threonine-protein kinase 2 (Homo sapiens) (UniProt Q9HBH9); settings: Compound concentration 1000.0 nM
[33] = molecular target: Mitogen-activated protein kinase kinase kinase 11 (Homo sapiens) (UniProt Q16584); settings: Compound concentration 1000.0 nM
[34] = test system: Tyrosine-protein kinase ABL1 (Homo sapiens), P00519 [Q252H]; settings: Compound concentration 1000.0 nM
[35] = molecular target: Mitogen-activated protein kinase kinase kinase kinase 4 (Homo sapiens) (UniProt O95819); settings: Compound concentration 1000.0 nM
[36] = molecular target: Dual specificity mitogen-activated protein kinase kinase 7 (Homo sapiens) (UniProt O14733); settings: Compound concentration 1000.0 nM
[37] = test system: Tyrosine-protein kinase ABL1 (Homo sapiens), P00519 [Q252H]; settings: Compound concentration 1000.0 nM; remark: listed apart in the source
[38] = molecular target: Histamine H4 receptor (Homo sapiens) (UniProt Q9H3N8); settings: Compound concentration 10.0 uM
[39] = molecular target: Receptor-interacting serine/threonine-protein kinase 1 (Homo sapiens) (UniProt Q13546); settings: Compound concentration 1000.0 nM

Sequence of Tyrosine-protein kinase Lyn (Homo sapiens) (P07948 2-512 limits assumed): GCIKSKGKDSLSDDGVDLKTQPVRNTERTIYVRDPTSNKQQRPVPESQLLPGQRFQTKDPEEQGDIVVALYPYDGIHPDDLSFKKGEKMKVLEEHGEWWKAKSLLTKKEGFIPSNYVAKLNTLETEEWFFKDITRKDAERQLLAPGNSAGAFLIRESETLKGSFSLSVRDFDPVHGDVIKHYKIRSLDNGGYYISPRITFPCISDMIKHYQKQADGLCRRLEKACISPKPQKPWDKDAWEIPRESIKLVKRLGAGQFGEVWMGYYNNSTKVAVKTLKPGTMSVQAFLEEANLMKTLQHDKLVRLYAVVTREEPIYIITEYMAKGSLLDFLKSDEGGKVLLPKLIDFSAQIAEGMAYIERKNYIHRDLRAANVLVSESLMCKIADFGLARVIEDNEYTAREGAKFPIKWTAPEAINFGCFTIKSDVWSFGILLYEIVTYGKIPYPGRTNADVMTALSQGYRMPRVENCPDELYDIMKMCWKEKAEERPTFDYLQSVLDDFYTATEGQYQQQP
Sequence of Myotonin-protein kinase (Homo sapiens) (Q09013 whole entry): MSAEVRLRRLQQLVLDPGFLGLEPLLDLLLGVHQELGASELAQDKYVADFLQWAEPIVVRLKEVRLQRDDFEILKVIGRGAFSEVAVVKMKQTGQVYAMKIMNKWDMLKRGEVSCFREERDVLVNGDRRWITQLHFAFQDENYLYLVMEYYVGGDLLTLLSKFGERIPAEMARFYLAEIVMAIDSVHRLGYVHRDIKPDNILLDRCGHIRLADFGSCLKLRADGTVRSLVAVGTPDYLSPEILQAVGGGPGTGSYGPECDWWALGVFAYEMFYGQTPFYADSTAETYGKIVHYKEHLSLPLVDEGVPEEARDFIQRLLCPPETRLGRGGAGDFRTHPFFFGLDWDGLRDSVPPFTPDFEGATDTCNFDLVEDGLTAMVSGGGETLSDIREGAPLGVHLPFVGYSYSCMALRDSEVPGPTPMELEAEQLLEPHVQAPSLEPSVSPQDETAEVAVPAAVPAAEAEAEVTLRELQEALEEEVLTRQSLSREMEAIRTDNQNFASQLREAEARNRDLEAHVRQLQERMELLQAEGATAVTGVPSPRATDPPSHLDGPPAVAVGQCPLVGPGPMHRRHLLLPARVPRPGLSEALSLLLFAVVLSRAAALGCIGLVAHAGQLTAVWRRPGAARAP

C[C@@H](c1cccc(C#N)c1)n1cc(Cl)cc(C(N)=O)c1=N [(S)-9s]
inactive: residual activity [1] 100% | residual activity [2] 94% | residual activity [3] 80% | residual activity [4] 100% | residual activity [5] 86% | residual activity [6] 96% | residual activity [7] 78% | residual activity [8] 100% | residual activity [9] 100% | residual activity [10] 85% | residual activity [11] 85% | residual activity [12] 97% | residual activity [13] 82% | residual activity [14] 94% | residual activity [15] 90% | residual activity [16] 98% | inhibition [17] 3.77% | residual activity [18] 84% | residual activity [19] 90% | residual activity [20] 80% | residual activity [21] 91% | residual activity [22] 100% | residual activity [23] 78% | residual activity [24] 95% | inhibition [25] 3.93% | residual activity [26] 79% | residual activity [27] 95% | residual activity [28] 100% | residual activity [29] 77% | residual activity [30] 96% | residual activity [31] 87% | residual activity [32] 100% | residual activity [33] 100% | residual activity [34] 68% | residual activity [35] 89% | residual activity [36] 99% | residual activity [37] 78% | inhibition [38] 0.47% | residual activity [39] 100%

C[C@H](c1cccc(C#N)c1)n1cc(Cl)cc(C(N)=O)c1=N [(R)-9s]
inactive: residual activity [1] 100% | residual activity [2] 88% | residual activity [3] 81% | residual activity [4] 100% | residual activity [5] 93% | residual activity [6] 100% | residual activity [7] 81% | residual activity [8] 86% | residual activity [9] 99% | residual activity [10] 95% | residual activity [11] 88% | residual activity [12] 78% | residual activity [13] 96% | residual activity [14] 87% | residual activity [15] 100% | residual activity [16] 94% | inhibition [17] 34.1% | residual activity [18] 88% | residual activity [19] 82% | residual activity [20] 75% | residual activity [21] 86% | residual activity [22] 100% | residual activity [23] 86% | residual activity [24] 100% | inhibition [25] 42.7% | residual activity [26] 82% | residual activity [27] 89% | residual activity [28] 100% | residual activity [29] 100% | residual activity [30] 94% | residual activity [31] 100% | residual activity [32] 100% | residual activity [33] 100% | residual activity [34] 100% | residual activity [35] 100% | residual activity [36] 72% | residual activity [37] 84% | inhibition [38] -2.33% | residual activity [39] 100%
